According to PubChem BioAssay (NCI):
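1) Cells in 96-well plates. 2) Compound, 48 h, 5 concentrations. 3) Linear interpolation between surrounding doses. 4) Unreached endpoint = highest concentration. At the TGI there is no net growth.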

Key:
Assay in all cases: NCI tumour cell line growth inhibition, 48 h
[1] = test system: SF-268 CNS
[2] = test system: KM12 colon
[3] = test system: SNB-75 CNS
[4] = test system: DMS 273 small cell lung
[5] = test system: NCI-H522 lung
[6] = test system: K-562 leukemia
[7] = test system: DMS 114 small cell lung
[8] = test system: MOLT-4 leukemia
[9] = test system: 786-0 renal
[10] = test system: HCT-116 colon
[11] = test system: OVCAR-3 ovarian
[12] = test system: HOP-62 NSCLC
[13] = test system: HCC-2998 colon
[14] = test system: SNB-19 CNS
[15] = test system: SF-539 CNS
[16] = test system: NCI-H460 lung
[17] = test system: KM20L2 colon
[18] = test system: MALME-3M melanoma
[19] = test system: SW-620 colon
[20] = test system: HT29 colon
[21] = test system: TK-10 renal
[22] = test system: HOP-18 NSCLC
[23] = test system: SK-MEL-2 melanoma
[24] = test system: M19-MEL melanoma
[25] = test system: OVCAR-8 ovarian
[26] = test system: SN12C renal
[27] = test system: NCI-H23 lung
[28] = test system: UACC-257 melanoma
[29] = test system: OVCAR-4 ovarian
[30] = test system: SNB-78 CNS
[31] = test system: EKVX NSCLC
[32] = test system: SK-MEL-5 melanoma
[33] = test system: RPMI-8226 leukemia
[34] = test system: SK-OV-3 ovarian
[35] = test system: ACHN renal
[36] = test system: HL-60(TB) leukemia
[37] = test system: XF 498 CNS
[38] = test system: LXFL 529 NSCLC
[39] = test system: NCI-H226 lung
[40] = test system: IGROV1 ovarian
[41] = test system: DLD-1 colon
[42] = test system: CCRF-CEM leukemia
[43] = test system: UO-31 renal
[44] = test system: UACC-62 melanoma
[45] = test system: U251 CNS
[46] = test system: A498 renal
[47] = test system: SF-295 CNS
[48] = test system: OVCAR-5 ovarian
[49] = test system: A549 NSCLC
[50] = test system: COLO 205 colon
[51] = test system: SK-MEL-28 melanoma
[52] = test system: LOX IMVI melanoma
[53] = test system: HCT-15 colon
[54] = test system: SR leukemia
[55] = test system: M14 melanoma
[56] = test system: CAKI-1 renal

Measured: TGI

CC(C)N(C(=O)C12C3C4C5(C#N)C3C1(C#N)C5C42C#N)C(C)C (stereo not given)
not listed: [53] | [54] | [55] | [56]
> 100 µM: all other assays above

Cc1cnc2ccc(C)c([N+](=O)[O-])c2c1NCCCN(C)C
not listed: [3] | [22] | [32] | [38] | [40] | [41] | [44] | [46]
> 100 µM: all other assays above
